The values that follow come from PMC7689096, “Cyclizing Painkillers: Development of Backbone-Cyclic TAPS Analogs” (Frontiers in Chemistry, 2020).

Several values for one entry are separate records, joined by “and”; a condition that tells them apart may be missing. Equal entries are not always repeated.

In one test the test system is mice. Kind of test: Mouse tail flick test (analgesia). The format is in vivo. The method, then: Following the preliminary results showing the in vitro agonist effect of TAPS c(2-6) in activating the μ-opioid receptor, the activity of TAPS c(2-6) in inducing analgesia in vivo was studied utilizing the mouse tail flick model. In this model, the mouse is exposed to local pain induced by an infrared light beam at the tail of the animal, and the time it takes for the animal to react to the pain, i.e., flick its tail, termed the “Latency time to tail flick,” is recorded. The treatment groups received either 5 or 15 mg/kg of TAPS c(2-6) dissolved in PBS. These were compared to animals receiving morphine (5 mg/kg) as a positive control or vehicle (PBS) as a negative control (Figure 9).
For the assessment of analgesia induced by TAPS c(2-6), the mouse tail-flick model was used. […] Animals were placed upon the TF instrument surface (Ugo Basile S.R.L) and held in place. The tail was placed straight back over an infrared light source. The heat source and timer were turned on and automatically switched off when the mouse flicked its tail away from the heat source. The time it took for the animal to flick its tail was measured and results were recorded as latency time to TF. […] Prior to TF measurement, assessment of possible locomotor side-effects via the Open-Field model was performed, as will be described in the next section TAPS c(2-6) Adverse Effect Assessment- the Open-Field Test.
For orientation: Thermal pain tests record how soon the animal reacts.

The target of test [1] is T1, human recombinant μ (MOP, OPRM1) receptor (Homo sapiens, UniProt P35372).
T1 construct: host or cells: CHO cells
Kind of test: MOP opioid receptor functional agonism in CHO cells expressing human recombinant μ receptors. To be noted: At 10^−6 M, percent of control specific agonist response, values lower than 25% not significant. The format is cell-based. The method, then:
Peptides were tested for μ (MOP, OPRM1) and δ (DOP, OPRD2) opioid receptor activation functional agonism and antagonism using CHO cells expressing human recombinant μ receptors and NG-10815 cells which express significant endogenous levels of δ opioid receptors. The cultures were incubated for 10 min at 37°C followed by impedance measurements of CHO cells and cAMP was assayed by the HTRF method using NG-10815 cells, according to CEREP standard assay protocols. The respective reference, non-peptide small molecules were tested concurrently with the TAPS analogs. The agonist compounds were: DPDPE (selective agonist of DOP receptor) and DAMGO (high MOP receptor specificity) and the antagonist compounds were: Naltrindole (selective DOP receptor antagonist) and CTOP (MOP receptor antagonist). […] The results are expressed as a percentage of respective control-specific response. […] These findings indicate that TAPS cyclic peptides are MOP selective full agonists. […] The cyclic TAPS peptide had lower activity than the linear parent TAPS peptide (90 ± 5%) – a finding that can be attributed to their restricted conformation relative to the flexible linear peptide conformation.
Evaluation of the Agonist Activity of Compounds at the Human μ Receptor in Transfected CHO Cells, Determined by Measuring Their Effects on cAMP modulation Using the HTRF Detection Method
Thereafter, the adenylyl cyclase activator NKH 477 is added at a final concentration of […]. Following 10 min incubation at 37°C, the cells are lysed and the fluorescence acceptor (D2-labeled cAMP) and fluorescence donor (anti-cAMP antibody labeled with europium cryptate) are added. After 60 min at room temperature, the fluorescence transfer is measured at lex = 337 nm and lem = 620 and 665 nm using a microplate reader (Rubystar, BMG). The cAMP concentration is determined by dividing the signal measured at 665 nm by that measured at 620 nm (ratio). The results are expressed as a percent of the control response to 1 μM DAMGO. The standard reference agonist is DAMGO, which is tested in each experiment at several concentrations to generate a concentration-response curve from which its EC50 value is calculated.
The respective reference, non-peptide small molecules were tested concurrently with the TAPS analogs; Agonist compounds DPDPE ([D-Pen2,D-Pen5]enkephalin), selective agonist of DOP receptor at 2 × 10^−9 M and DAMGO ([D-Ala2, N-MePhe4, Gly-ol] enkephalin), high MOP specificity at 2.5 × 10^−9 M; Antagonist compounds: naltrindole 7-(cyclopropylmethyl)-6,7-dehydro-4,5α-epoxy-3,14-dihydroxy-6,7-2′,3′-indolomorphinan hydrochloride, selective DOP antagonist, 5 × 10^−10 M and CTOP (D-Phe-Cys-Tyr-D-Trp-Orn-Thr-Pen-Thr-NH2), MOP antagonist at 3.4 × 10^−7 M. Depending on the assay volume and solvent tolerance, the stock solutions were diluted to [100×], [333×] or [1,000×] in 100% DMEM solvent, then either added directly or further diluted to [10×] or [5×] in H2O or Hank's balanced salt solution (HBSS) before addition to the assay well (final solvent concentration kept constant). The cultures were incubated for 10 min at 37°C followed by impedance measurements using cellular dielectric spectroscopy of CHO cells and cAMP was assayed by homogeneous time resolved fluorescence (HTRF) method using NG-10815 cells, according to CEREP standard assay protocols (https://euroscreenfast.com/assays/opioid-orl1-camp-fast-0360c; https://euroscreenfast.com/assays/opioid-op1-delta-camp-fast-0379c). The results (mean of three experiments) are expressed as a percent of control specific agonist response [(measured TAPS specific response/control specific agonist response) × 100] and as a percent inhibition of control specific agonist response [100 – (measured TAPS specific response/control specific agonist response) × 100] obtained in the presence of the TAPS compounds. […]

T1 sequence (P35372 whole entry): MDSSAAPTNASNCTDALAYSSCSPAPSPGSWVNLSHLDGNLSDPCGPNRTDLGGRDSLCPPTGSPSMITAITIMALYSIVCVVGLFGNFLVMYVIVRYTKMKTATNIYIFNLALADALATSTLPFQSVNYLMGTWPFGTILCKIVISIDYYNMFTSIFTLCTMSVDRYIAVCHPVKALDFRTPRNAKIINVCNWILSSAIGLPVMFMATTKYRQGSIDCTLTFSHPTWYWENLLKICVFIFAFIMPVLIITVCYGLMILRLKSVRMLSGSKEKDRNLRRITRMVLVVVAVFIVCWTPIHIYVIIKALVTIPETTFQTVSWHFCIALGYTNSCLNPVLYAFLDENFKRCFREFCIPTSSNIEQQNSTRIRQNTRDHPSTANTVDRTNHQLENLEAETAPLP

Consider `N=C(N)NCCC[C@@H]1C(=O)N[C@@H](Cc2ccccc2)C(=O)N(CC(N)=O)CCNC(=O)NCCCCCCN1C(=O)[C@@H](N)Cc1ccc(O)cc1` [TAPS c(2-6)], for which the “analgesia (latency time to tail flick)” value was “induced analgesia” in the test on mice (5 mg/kg IP, compared to PBS); “comparative in strength and duration to that induced by morphine” in the test with mice (15 mg/kg IP, compared to morphine 5 mg/kg). Moreover, in the test with mice (higher dosage 15 mg/kg IP), the duration of analgesia entry is “at least 5 h”. Besides, the “MOP agonist (%)” value in test [1] was 48 ± 3% and 48^** %.
